In patent US9808003B2, “Herbicidally active 2-(substituted-phenyl)-cyclopentane-1,3-dione compounds and derivatives thereof” (Syngenta Limited, priority 2013, dated 2017):

Legend:
Assay in all cases: Test 1A glasshouse assay, post-emergence herbicidal activity
Type in all cases: in vivo
[1] = tested on: Alopecurus myosuroides (ALOMY); conditions: Alopecurus myosuroides, 312 h, application rate 250 g/ha, 13 days after application, visual (100%=total damage; 0%=no damage), read-out: Post-emergence Herbicidal Activity (% Phytotoxicity) ALOMY
Outline: (§1)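 Read-out is visual percent phytotoxicity 13 days post-spray, 100% meaning total plant damage and 0% none. Seedlings were treated after 8 days' glasshouse cultivation with an aqueous spray of active ingredient in acetone/water 50:50 plus 0.5% Tween 20.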

[2] = tested on: Avena fatua (AVEFA); conditions: Avena fatua, 312 h, application rate 250 g/ha, 13 days after application, visual (100%=total damage; 0%=no damage), read-out: Post-emergence Herbicidal Activity (% Phytotoxicity) AVEFA
Outline: as §1

[3] = tested on: Echinochloa crus-galli (ECHCG); conditions: Echinochloa crus-galli, 312 h, application rate 250 g/ha, 13 days after application, visual (100%=total damage; 0%=no damage), read-out: Post-emergence Herbicidal Activity (% Phytotoxicity) ECHCG
Outline: as §1

[4] = tested on: Lolium perenne (LOLPE); conditions: Lolium perenne, 312 h, application rate 250 g/ha, 13 days after application, visual (100%=total damage; 0%=no damage), read-out: Post-emergence Herbicidal Activity (% Phytotoxicity) LOLPE
Outline: as §1

Compound | pest or weed control at 250 g/ha [1] | pest or weed control at 250 g/ha [2] | pest or weed control at 250 g/ha [3] | pest or weed control at 250 g/ha [4]
Cc1cc(-c2ccccc2Cl)cc(C)c1C1C(=O)CC(CCNC(=O)c2ccccn2)C1=O (stereo not shown) [Compound A184] | 10% | 20% | 90% | 60%
Cc1cc(C)c(C2C(=O)CC(CCNC(=O)c3ncc(Br)cc3F)C2=O)c(C)c1 (stereo not shown) [Compound A185] | 90% | 100% | 100% | 100%
Cc1cc(C)c(C2C(=O)CC(CCNC(=O)c3ccc(F)c(Br)n3)C2=O)c(C)c1 (stereo not shown) [Compound A186] | 100% | 90% | 100% | 100%
Cc1cc(C)c(C2C(=O)CC(CCNC(=O)c3ncc(F)cc3Br)C2=O)c(C)c1 (stereo not shown) [Compound A187] | 90% | 90% | 100% | 100%
Cc1cc(C)c(C2C(=O)CC(CCNC(=O)c3ccc(OC(F)F)cn3)C2=O)c(C)c1 (stereo not shown) [Compound A188] | 100% | 100% | 100% | 100%
Cc1cc(C)c(C2C(=O)CC(CCNC(=O)c3ncc(Cl)cc3F)C2=O)c(C)c1 (stereo not shown) [Compound A189] | 100% | 100% | 100% | 100%
Cc1cc(C)c(C2C(=O)CC(CCNC(=O)c3ccc(C=C(F)F)cn3)C2=O)c(C)c1 (stereo not shown) [Compound A190] | 80% | 90% | 90% | 90%
Cc1cc(-n2cc(Cl)cn2)cc(C)c1C1C(=O)CC(CCNC(=O)c2nc(Br)ccc2F)C1=O (stereo not shown) [Compound A191] | 100% | 100% | 100% | 90%
CC#Cc1ccc(C(=O)NCCC2CC(=O)C(c3c(C)cc(C)cc3C)C2=O)nc1 (stereo not shown) [Compound A192] | 80% | 90% | 100% | 100%
Cc1cc(C)c(C2C(=O)CC(CCNC(=O)c3nc(Br)ccc3F)C2=O)c(C)c1 (stereo not shown) [Compound A193] | 90% | 90% | 90% | 100%
Cc1cc(C)c(C2C(=O)CC(CCNC(=O)c3nccnc3Cl)C2=O)c(C)c1 (stereo not shown) [Compound A194] | 80% | 90% | 100% | 90%
Cc1cc(C)c(C2C(=O)CC(CCNC(=O)c3cnc(Cl)cn3)C2=O)c(C)c1 (stereo not shown) [Compound A195] | 30% | 30% | 80% | 60%
Cc1cc(C)c(C2C(=O)CC(CCNC(=O)c3cncc(Cl)n3)C2=O)c(C)c1 (stereo not shown) [Compound A196] | 80% | 90% | 100% | 90%
Cc1cc(Br)cc(Br)c1C1C(=O)CC(CCNC(=O)c2ccccn2)C1=O (stereo not shown) [Compound A197] | 90% | 70% | 100% | 60%
Cc1cc(-c2cc(Cl)cc(Cl)c2)cc(C)c1C1C(=O)CC(CCNC(=O)c2ccccn2)C1=O (stereo not shown) [Compound A203] | 80% | 100% | 100% | 80%
Cc1ccc(-c2cc(C)c(C3C(=O)CC(CCNC(=O)c4ccccn4)C3=O)c(C)c2)cc1 (stereo not shown) [Compound A204] | 90% | 90% | 100% | 100%
Cc1cc(C)c(C2C(=O)CC(CCNC(=O)c3snc(Cl)c3Cl)C2=O)c(C)c1 (stereo not shown) [Compound A212] | 30% | 50% | 70% | 70%
Cc1cc(C)c(C2C(=O)CC(CCNC(=O)c3sc(Cl)nc3C(F)(F)F)C2=O)c(C)c1 (stereo not shown) [Compound A213] | 10% | 10% | 50% | 60%
COC(=O)OC(C)OC1=C(c2c(C)cc(C)cc2C)C(=O)C(CCNC(=O)c2ccc(Br)cn2)C1 (stereo not shown) [Compound P3] | 90% | 100% | 100% | 100%
CCSC(=O)OC1=C(c2c(C)cc(C)cc2C)C(=O)CC1CCNC(=O)c1ccc(Br)cn1 (stereo not shown) [Compound P10] | 100% | 100% | 100% | 100%
CCOC(=O)OC1=C(c2c(C)cc(C)cc2C)C(=O)C(CCNC(=O)c2ccc(Br)cn2)C1 (stereo not shown) [Compound P11] | 100% | 100% | 100% | 100%
CCCCC(=O)OC1=C(c2c(C)cc(C)cc2C)C(=O)C(CCNC(=O)c2ccc(Br)cn2)C1 (stereo not shown) [Compound P12] | 100% | 100% | 100% | 100%
Cc1cc(C)c(C2=C(OC(=O)C(C)(C)C)CC(CCNC(=O)c3ccc(Br)cn3)C2=O)c(C)c1 (stereo not shown) [Compound P13] | 100% | 100% | 100% | 100%
Cc1cc(-n2cc(Cl)cn2)cc(C)c1C1=C(OC(=O)c2ccc(F)cc2)CC(CCNC(=O)c2ccccn2)C1=O (stereo not shown) [Compound P14] | 100% | 100% | 100% | 100%
CCCCS(=O)(=O)OC1=C(c2c(C)cc(-n3cc(Cl)cn3)cc2C)C(=O)C(CCNC(=O)c2ccccn2)C1 (stereo not shown) [Compound P15] | 100% | 100% | 100% | 100%
Cc1cc(-n2cc(Cl)cn2)cc(C)c1C1=C(OS(=O)(=O)c2ccc(F)cc2)CC(CCNC(=O)c2ccccn2)C1=O (stereo not shown) [Compound P16] | 100% | 90% | 100% | 100%
Cc1cc(C)c(C2=C(OC(=O)c3ccc(F)cc3)CC(CCNC(=O)c3ccc(Br)cn3)C2=O)c(C)c1 (stereo not shown) [Compound P17] | 100% | 100% | 100% | 100%
CCCCS(=O)(=O)OC1=C(c2c(C)cc(C)cc2C)C(=O)C(CCNC(=O)c2ccc(Br)cn2)C1 (stereo not shown) [Compound P18] | 100% | 90% | 100% | 100%
